# Measurements reported in US20080207594A1, “Use of Gsk-3 Inhibitors for Preventing and Treating Pancreatic Autoimmune Disorders” (Davelogen Aktiengesellschaft, priority 2005, published 2008).
# Entries after “also recorded” stand apart in the source; their conditions may differ.
# Experiments:
# INS-1E cells = experiment: Protection against apoptotic signals, nucleosomal fragmentation (cell death detection ELISA) and morphology; type: cell-based, rat
# Description: FIG. 7: Determination of cytokine or high glucose and fatty acid induced Nucleosomal-fragmentation in INS-1 cells. To induce apoptosis INS-1 cells were exposed to the cytokines IL-1 beta at 4 ng/ml and IFN-gamma at 1 U/ml (Cyt. in figure A) or glucose at […] and palmitate at […] (Pal/Gluc in figure B) for 24 hours. 1 hour before the application of these reagents indicated cell samples were treated with 10 μM 1-Azakenpaullone (AzaP) or 15 μM NG-monomethyl-L-arginine monoacetate (L-NMMA) an inhibitor of the inducible nitric oxide synthase (iNOS). Apoptosis was assessed by determination of nucleosomal accumulation in the cytosolic extracts using a cell death detection ELISA kit. Nucleosomal release is expressed relative to untreated control cells (Co.).
# FIG. 8: Cell morphology of treated cells was inspected by light microscopy. Cell morphologies of untreated (A), Pal/Gluc (B) and Pal/Gluc+AzaP (C) treated cells are shown.
# The beta cell line INS-1E was used to investigate anti-apototic effects of the compounds of the invention on beta cells. Apotosis was induced by culturing cells with a cytokine combination (interleukine-1beta/interferon gamma) or with high concentrations of both glucose and palmitate. 1-Azakenpaullone strongly (60%) inhibited cytokine-induced apoptosis (FIG. 7A), with a weaker effect (25%) against glucolipotoxicity induced apoptosis (FIG. 7B). The state of the treated and untreated cells was analyzed by microscopy.
# INS-1E cells were cultured as described (Merglen et al., (2004) Endocrinology; 145: 667-678). Cells were seeded at a density of 1×10^4 cells per 96-well in 96 well plates in 200 μl culture medium for 3 days. Then, cells were cultured for 1 day in 100 μl medium containing 1% FCS and 5 mM glucose. […] The rate of apoptosis was measured by the specific determination of mono- and oligonucleosomes in the cytoplasmic fraction of cell lysates using a cell death detection ELISA kit (ROCHE Cat. No. 1774425). The assay is based on a quantitative sandwich-enzyme-immunoassay-principle using mouse monoclonal anti-histone and anti-DNA peroxidase antibodies. […]
# Pax4 [1] = experiment: Pax4 transcription in INS-1E insulinoma cells, quantitative RT-PCR; type: cell-based, rat; settings: INS-1E cells; for stimulation of Pax4 transcription relative to activin A (in words): FIG. 16
# From the text: The response of the Pax4 gene to test compounds was investigated in the rat insulinoma cell line INS-1E. INS-1E cells are known to express Pax4 and to upregulate Pax4 levels in response to the treatment with activin-A and betacellulin. In the search for novel beta cell mitogens and/or beta cell protective agents the inventors treated INS-1E cells with different test compounds.
# Total RNA from 8×10^4 cells growing on 4 cm^2 surface area of a tissue culture dish was extracted using Qiagen RNAeasy kit according to the instructions of the manufacturer (Qiagen) and 2 μg was converted into cDNA. Primers for pax4, 18S RNA, and rat RNA polymerase II largest subunit (RPB1) were designed using the Primer Express 1.5 Software from Applied Biosystems and sequences can be obtained upon request. Quantitative real-time PCR was performed using Applied Biosystems SDS 7000 detection system. Amplifications from 2 independent experiments were performed in duplicate for each transcript and mean values were normalized to the mean value of the reference RNA 18S RNA.
# (§1) Cells were seeded at a density of 2×10^4 cells per cm^2 6 to 8 days before the treatment with chemicals. During the growth period the medium was changed once. The cells were incubated for different periods of time with chemicals under serum-free conditions. The cells were harvested in Qiagen RNAeasy cell lysate buffer and immediately transferred to dry ice. The samples were stored at −20° C. until RNA isolation was carried out.
# as §1, with “RNA easy” for “RNAeasy”, “−20 degree” for “−20° C.”
# Pax4 [2] = experiment: Pax4 transcription in rat islets, quantitative RT-PCR; type: cell-based
# From the text: The response of the Pax4 gene to two compounds was investigated in rat islets. […] No effects were observed on the expression levels of cyclophilin B and RNA polymerase II largest subunit (RPB1) indicating a specific regulation of the Pax4 gene.
# Total RNA from 200 to 400 islets growing in wells with 4 cm^2 surface area of a tissue culture dish was isolated according to instruction of the manufacturer of Trizol™ reagent. To further purify the RNA and to remove remaining DNA contaminations RNA was treated with the Qiagen RNAeasy kit according to the instructions of the manufacturer (Qiagen) and about 1 μg was converted into cDNA. Primers for pax4, 18S RNA, and rat RNA polymerase II largest subunit (RPB1) were designed using the Primer Express 1.5 Software from Applied Biosystems. Quantitative real-time PCR was performed using Applied Biosystems SDS 7000 detection system. Amplifications from at least 2 independent experiments were performed in duplicate for each transcript and mean values were normalized to the mean value of the reference RNA 18S RNA.
# Rat islets were isolated from Wistar rats and cultured as described (Brun et al., 2004, JCB; 167: 1123-1135). In brief, 10 ml ice-cold liberase solution (Roche) was injected into the pancreas via the common bile duct. After dissection the pancreas was incubated for 40 minutes at 37° C. and then further dissociated by repeated pipetting using a 10 ml pipette. Islets were isolated by applying digested tissue to a ficoll-gradient before they were manually picked using a stereomicroscope. Islets were placed in bacteriological wells and compounds were administered as indicated. Islets were harvested in Trizol™ and immediately transferred to dry ice. The samples were stored at −20° C. until RNA isolation was carried out.
# primary rat beta cells = experiment: In vitro beta cell proliferation assay (Ki-67 / C-peptide staining of dispersed islets); type: cell-based; settings: incubation 72 hours; for replication of primary rat beta cells, agent alone: FIG. 12, FIG. 14
# Description: About 1.5×10^4 beta cells were inspected per experiment and the percentage of double positive cells was determined. The number of replicating beta cells is expressed relative to control cells maintained in 10% FCS (FIG. 9A). Prolactin treated cells served as a technical control. Identification of C-peptide and Ki67 double positive beta cells dispersed on adhesive slides was carried out by immunohistochemistry (FIG. 9B).
# We investigated the growth promoting effects by monitoring the percentage of replicating beta cells in isolated rat islets. Replicating beta cells were identified by immunohistological staining of dispersed islets with antibodies against C-peptide, a fragment of proinsulin, and the cell division marker Ki-67.
# Islets of Langerhans are isolated by standard Liberase digestion method from rat pancreata (Liberase™ Cl enzyme blend BMB Cat. # 1814-435, ROCHE).
# Following the culture period the islets are dispersed gently by titration in Ca^2+ and Mg^2+ free PBS. […] The adherent islet cells are fixed and stained by standard immunofluorescence techniques for C-peptide, a fragment of proinsulin and Ki-67 a marker of proliferating cells.
# An Olympus microscope equipped with an automatic image acquisition device (Olympus) is used for counting of C-peptide positive beta cells. Proliferating C-peptide/Ki-67 double positive beta cells are counted manually. Thereby the fraction of proliferating beta cells can be determined.
molecule,measurement,setting,value
O=C1Cc2c([nH]c3ccc(Br)cc23)-c2ncccc2N1 [1-Azakenpaullone],"cell morphology by microscopy, signs of cell death","INS-1E cells; INS-1E exposed to toxic agents (Pal/Gluc), FIG. 8",partially antagonizes this effect
same,inhibition of glucolipotoxicity induced apoptosis,"INS-1E cells; INS-1E, glucose at 25 nM and palmitate at 0.04 nM for 24 hours, 10 μM compound 1 hour before, FIG. 7B",25%
same,inhibition at 10 µM,"INS-1E cells; Rattus norvegicus, INS-1E, IL-1 beta 4 ng/ml and IFN-gamma 1 U/ml for 24 hours, 10 μM compound 1 hour before, FIG. 7A, read-out: inhibition of cytokine-induced apoptosis",60%
same,induction of relative Pax4 expression,Pax4 [1]; 3 μM,about 6 fold
same,Pax4 RNA levels compared with technical control activin-A,Pax4 [2],induces higher Pax4 RNA levels than activin-A
same,time course of Pax4 RNA levels,Pax4 [2],transiently up-regulates Pax4 RNA levels
"CC(=O)O/N=C1/C(=C2/C(=O)Nc3cc(Br)ccc32)Nc2ccccc21 [(2′Z,3′ E)-6-Bromoindirubin-3′-acetoxime]",induction of Pax4 expression (in words),Pax4 [1],induction of Pax4 expression was also found
"O=C1Nc2cc(Br)ccc2/C1=C1/Nc2ccccc2/C1=N\O [(2′Z,3′E)-6-Bromoindirubin-3′-oxime]",induction of Pax4 expression (in words),Pax4 [1],induction of Pax4 expression was also found
O=C1Cc2c([nH]c3ccc([N+](=O)[O-])cc23)-c2ccccc2N1 [Alsterpaullone],induction of relative Pax4 expression compared to the control,Pax4 [1]; 20 μM,about 7 fold
Cc1c[nH]c(-c2cnc(NCCNc3ccc(C#N)cn3)nc2-c2ccc(Cl)cc2Cl)n1 [CHIR99021],"replication of primary rat beta cells, agent alone",primary rat beta cells,trigger beta cell replication; also recorded: promotes replication of primary rat beta cells
"COc1ccc(CNC(=O)Nc2ncc([N+](=O)[O-])s2)cc1 [GSK-3 inhibitor VIII, N-(4-Methoxybenzyl)-N′-(5-nitro-1,3-thiazol-2-yl)urea]",induction of Pax4 expression (in words),Pax4 [1],induction of Pax4 expression was also found
"GIP: incretin GIP (gastrin inhibitory protein) (YAEGTFISDYSIAMDKIHQQDFVNWLLAQKGKKNDWKHNITQ; Gastric inhibitory polypeptide; UniProt P09681 52-93, looked up)","replication of primary rat beta cells, agent alone",primary rat beta cells,trigger beta cell replication
same,"replication of primary rat beta cells, GIP combined with GSK3 inhibitor CHIR99021",primary rat beta cells; FIG. 14,cooperative effects
NGF: nerve growth factor,"replication of primary rat beta cells, growth factor combined with GSK3 inhibitor 1-Azakenpaullone",primary rat beta cells; FIG. 12,potentiate the growth promoting effects
same,"replication of primary rat beta cells, agent alone",primary rat beta cells,not sufficient to trigger beta cell replication
exendin-4,"replication of primary rat beta cells, agent alone",primary rat beta cells,trigger beta cell replication
"BMP 7: TGF-beta family member (protein, UniProt P18075 293-431, looked up) Bone morphogenetic protein 7: STGSKQRSQNRSKTPKNQEALRMANVAENSSSDQRQACKKHELYVSFRDLGWQDWIIAPEGYAAYYCEGECAFPLNSYMNATNHAIVQTLVHFINPETVPKPCCAPTQLNAISVLYFDDSSNVILKKYRNMVVRACGCH",stimulation of Pax4 transcription relative to activin A (in words),Pax4 [1],hardly induced Pax4 gene transcription
"activin-A: technical control previously shown to activate Pax4 transcription in rat islets (protein, UniProt P08476 311-426, looked up, Inhibin beta A chain) Inhibin beta A chain: GLECDGKVNICCKKQFFVSFKDIGWNDWIIAPSGYHANYCEGECPSHIAGTSGSSLSFHSTVINHYRMRGHSPFANLKSCCVPTKLRPMSMLYYDDGQNIIKKDIQNMIVEECGCS",time course of Pax4 RNA levels,Pax4 [2],more sustained increase in Pax4 RNA levels
"activin AB: protein related to activin A (protein, UniProt P08476 311-426; P09529 293-407, looked up) Inhibin beta A chain: GLECDGKVNICCKKQFFVSFKDIGWNDWIIAPSGYHANYCEGECPSHIAGTSGSSLSFHSTVINHYRMRGHSPFANLKSCCVPTKLRPMSMLYYDDGQNIIKKDIQNMIVEECGCS Inhibin beta B chain: GLECDGRTNLCCRQQFFIDFRLIGWNDWIIAPTGYYGNYCEGSCPAYLAGVPGSASSFHTAVVNQYRMRGLNPGTVNSCCIPTKLSTMSMLYFDDEYNIVKRDVPNMIVEECGCA",stimulation of Pax4 transcription relative to activin A (in words),Pax4 [1],almost equally potent in stimulating Pax4 transcription as activin A
"BMP 4: TGF-beta family member (protein, UniProt P12644 293-408, looked up) Bone morphogenetic protein 4: SPKHHSQRARKKNKNCRRHSLYVDFSDVGWNDWIVAPPGYQAFYCHGDCPFPLADHLNSTNHAIVQTLVNSVNSSIPKACCVPTELSAISMLYLDEYDKVVLKNYQEMVVEGCGCR",stimulation of Pax4 transcription relative to activin A (in words),Pax4 [1],hardly induced Pax4 gene transcription
"betacellulin: growth factor (protein, UniProt P35070 32-111, looked up, Betacellulin, growth factor) Betacellulin: DGNSTRSPETNGLLCGDPEENCAATTTQSKRKGHFSRCPKQYKHYCIKGRCRFVVAEQTPSCVCDEGYIGARCERVDLFY","replication of primary rat beta cells, agent alone",primary rat beta cells,does not influence replication of primary rat beta cells
